The term IC50 denotes the concentration that inhibits the measured activity by half.

This experiment has as its target T1, human kinase Mps-1 (Homo sapiens, UniProt P33981).
T1 construct: N-terminally GST-tagged human full length recombinant Mps-1 kinase; GST (N); purchased Invitrogen, Karslruhe, Germany PV4071
T1 sequence (P33981 1-857): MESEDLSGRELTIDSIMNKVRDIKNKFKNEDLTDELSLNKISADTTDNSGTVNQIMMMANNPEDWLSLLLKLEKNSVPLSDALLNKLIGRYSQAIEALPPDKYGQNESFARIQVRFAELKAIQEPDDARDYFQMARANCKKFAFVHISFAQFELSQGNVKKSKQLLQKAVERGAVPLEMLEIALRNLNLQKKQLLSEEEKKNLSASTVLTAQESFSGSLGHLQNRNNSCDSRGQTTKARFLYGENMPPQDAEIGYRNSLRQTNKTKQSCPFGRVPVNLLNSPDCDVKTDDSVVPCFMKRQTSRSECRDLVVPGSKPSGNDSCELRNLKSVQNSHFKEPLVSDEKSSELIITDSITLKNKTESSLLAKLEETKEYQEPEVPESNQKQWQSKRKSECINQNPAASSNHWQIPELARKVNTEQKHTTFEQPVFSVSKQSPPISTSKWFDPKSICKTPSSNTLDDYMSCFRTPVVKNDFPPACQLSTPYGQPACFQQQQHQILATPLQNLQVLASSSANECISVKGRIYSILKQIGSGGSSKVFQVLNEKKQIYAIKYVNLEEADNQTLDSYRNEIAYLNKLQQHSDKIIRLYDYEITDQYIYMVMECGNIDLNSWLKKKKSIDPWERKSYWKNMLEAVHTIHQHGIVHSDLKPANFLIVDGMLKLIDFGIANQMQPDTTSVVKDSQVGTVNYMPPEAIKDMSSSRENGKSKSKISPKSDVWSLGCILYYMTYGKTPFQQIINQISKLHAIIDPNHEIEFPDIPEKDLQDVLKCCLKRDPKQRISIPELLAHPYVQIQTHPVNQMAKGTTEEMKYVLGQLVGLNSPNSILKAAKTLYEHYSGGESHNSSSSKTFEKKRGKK
Description: Mps-1 kinase assay (TR-FRET). It is filed as biochemical. Conditions: N-terminally GST-tagged human full length recombinant Mps-1; 10 μM ATP; 1 μM peptide substrate; 15 min pre-incubation; 60 min at 22° C. In outline: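 TR-FRET read-out: after 1 h binding at 22° C, Eu-labelled anti-phospho-Ser/Thr antibody transfers to SA-XLent on the phosphorylated biotinylated peptide. The enzyme is GST-tagged full-length human Mps-1, typically about 1 nM final, in the linear range.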
On the technique in general: In TR-FRET formats the signal depends on donor and acceptor labels being close together.
Regarding `O=C(NC1CC1)c1ccc(-c2cnc3c(NCCC(F)(F)F)nc(-c4ccccc4CO)cn23)cc1Cl` [Example 1-97, 2-chloro-N-cyclopropyl-4-{6-[2-(hydroxymethyl)phenyl]-8-[(3,3,3-trifluoropropyl)amino]imidazo[1,2-a]pyrazin-3-yl}benzamide], the half-maximal inhibitory concentration (IC50) was found to be 5.1 nM.
Next, `NS(=O)(=O)c1ccc(CNc2nc(-c3ccccc3)cn3c(-c4ccc(C(=O)NC5CC5)cc4)cnc23)cc1` [Example 2-26, N-cyclopropyl-4-{6-phenyl-8-[(4-sulfamoylbenzyl)amino]imidazo[1,2-a]pyrazin-3-yl}benzamide]: 5.6 nM; `Cc1cc(-c2cn3c(-c4ccc(C(=O)NC5CC5)cc4)cnc3c(NCC(C)(C)O)n2)ccc1F` [Example 1-135, N-cyclopropyl-4-{6-(4-fluoro-3-methylphenyl)-8-[(2-hydroxy-2-methylpropyl)amino]imidazo [1,2-a]pyrazin-3-yl} benzamide]: 8.4 nM; `O=C(NC1CC1)c1ccc(-c2cnc3c(NCCc4ccncc4)nc(-c4ccccc4)cn23)cc1` [Example 2-41, N-cyclopropyl-4-(6-phenyl-8-{[2-(pyridin-4-yl)ethyl]amino}imidazo[1,2-a]pyrazin-3-yl) benzamide]: 5.5 nM.
For `CCOc1cccc(-c2cn3c(-c4ccc(C(=O)NC5CC5)cc4)cnc3c(NCC(C)C)n2)c1` [Example 1-44, N-cyclopropyl-4-{6-(3-ethoxyphenyl)-8-[(2-methylpropyl)amino]imidazo[1,2-a]pyrazin-3-yl}benzamide] the value was 5.8 nM; for `O=C(NC1CC1)c1ccc(-c2cnc3c(NCC4CC4)nc(-c4ccccc4)cn23)cc1` [Example 2-23, N-cyclopropyl-4-{8-[(cyclo-propylmethyl)amino]-6-phenylimidazo[1,2-a]pyrazin-3-yl}benzamide], 2.7 nM; for `CC(C)(O)CNc1nc(C2=CCOCC2)cn2c(-c3ccc(C(=O)NC4CC4)c(Cl)c3)cnc12` [Example 1-102, 2-chloro-N-cyclopropyl-4-{6-(3,6-dihydro-2H-pyran-4-yl)-8-[(2-hydroxy-2-methylpropyl)amino]imidazo[1,2-a]pyrazin-3-yl}benzamide], 99 nM.
In the case of `CC(C)CNc1nc(-c2cc(F)cc(F)c2)cn2c(-c3ccc(C(=O)NC4CC4)cc3)cnc12` [Example 1-60, N-cyclopropyl-4-{6-(3,5-difluorophenyl)-8-[(2-methylpropyl)amino]imidazo[1,2-a]pyrazin-3-yl}benzamide], the concentration for half-maximal inhibition (IC50) worked out at 42.4 nM.
Next, `CC(C)CNc1nc(-c2cccc3ncccc23)cn2c(-c3ccc(C(=O)NC4CC4)cc3)cnc12` [Example 1-20, N-cyclopropyl-4-{8-[(2-methylpropyl)amino]-6-(quinolin-5-yl)imidazo [1,2-a]pyrazin-3-yl} benzamide]: 1 nM.
Take `O=C(NC1CC1)c1ccc(-c2cnc3c(NCCCF)nc(-c4ccccc4)cn23)cc1` [Example 2-62, N-cyclopropyl-4-{8-[(3-fluoropropyl)amino]-6-phenylimidazo[1,2-a]pyrazin-3-yl}benzamide]: the IC50 is 1.1 nM.
For `Cc1cc(C)cc(-c2cn3c(-c4ccc(C(=O)NC5CC5)cc4)cnc3c(NCC(C)C)n2)c1` [Example 1-39, N-cyclopropyl-4-{6-(3,5-dimethylphenyl)-8-[(2-methylpropyl)amino]imidazo[1,2-a]pyrazin-3-yl}benzamide] the value was 32.3 nM; for `Cc1cc(-c2cnc3c(NCC4CCCO4)nc(-c4ccc(F)cc4)cn23)ccc1C(=O)NC1CC1` (stereo not drawn) [Example 10-2, N-cyclopropyl-4-{6-(4-fluorophenyl)-8-[(tetrahydrofuran-2-ylmethyl)amino]imidazo [1,2-a]pyrazin-3-yl}-2-methylbenzamide], 9.1 nM.
For `CC(C)CNc1nc(-c2ccc(C(C)C)cc2)cn2c(-c3ccc(C(=O)NC4CC4)cc3)cnc12` [Example 1-59, N-cyclopropyl-4-{8-[(2-methylpropyl)amino]-6-[4-(propan-2-yl)phenyl]imidazo[1,2-a]pyrazin-3-yl}benzamide] the value was 55.7 nM; for `O=C(NC1CC1)c1ccc(-c2cnc3c(NCC4CCCC4)nc(-c4ccccc4)cn23)cc1` [Example 2-72, 4-{8-[(Cyclopentylmethyl)amino]-6-phenylimidazo[1,2-a]pyrazin-3-yl}-N-cyclopropylbenzamide], 2.5 nM.
For the molecule `CC(C)CNc1nc(-c2ccc(SC3CC3)cc2)cn2c(-c3ccc(C(=O)NC4CC4)cc3)cnc12` [Example 1-127, N-cyclopropyl-4-{6-[4-(cyclopropylsulfanyl)phenyl]-8-[(2-methylpropyl)amino]imidazo[1,2-a]pyrazin-3-yl} benzamide], the IC50 came out at 32.2 nM.
For `O=C(NC1CC1)c1ccc(-c2cnc3c(NCc4ccc(F)cc4)nc(-c4ccccc4)cn23)cc1` [Example 2-14, N-cyclopropyl-4-{8-[(4-fluorobenzyl)amino]-6-phenylimidazo[1,2-a]pyrazin-3-yl}benzamide] the value was 2.9 nM.
In the case of `Cc1cc(-c2cnc3c(NCCC4CC4)nc(-c4ccc(F)cc4)cn23)ccc1C(=O)NC1CC1` [Example 10-10, N-cyclopropyl-4-{8-[(2-cyclopropylethyl)amino]-6-(4-fluorophenyl)imidazo [1,2-a]pyrazin-3-yl}-2-methylbenzamide], the half-inhibitory concentration (IC50) was 16.6 nM.
With `Cn1nccc1CNc1nc(-c2ccccc2)cn2c(-c3ccc(C(=O)NC4CC4)cc3)cnc12` [Example 2-54, N-cyclopropyl-4-(8-{[(1-methyl-1H-pyrazol-5-yl)methyl]amino}-6-phenylimidazo[1,2-a]pyrazin-3-yl)benzamide], the IC50 came out at 1.5 nM.
Regarding `CC(C)CNc1nc(-c2ccc(F)cc2)cn2c(-c3ccc(C(=O)NC4CC4)c(Cl)c3)cnc12` [Example 1-93, 2-chloro-N-cyclopropyl-4-{6-(4-fluorophenyl)-8-[(2-methylpropyl)amino]imidazo[1,2-a]pyrazin-3-yl}benzamide], the IC50 is 18 nM.
For the molecule `CC(C)CNc1nc(C(C)C)cn2c(-c3ccc(C(=O)NC4CC4)cc3)cnc12` [Example 11-2, N-cyclopropyl-4-{8-[(2-methylpropyl)amino]-6-(propan-2-yl)imidazo[1,2-a]pyrazin-3-yl} benzamide], the IC50 was determined as 7.1 nM.
Turning to `NS(=O)(=O)c1ccc(CCNc2nc(-c3ccccc3)cn3c(-c4ccc(C(=O)NC5CC5)cc4)cnc23)cc1` [Example 2-21, N-cyclopropyl-4-(6-phenyl-8-{[2-(4-sulfamoylphenyl)ethyl]amino}imidazo[1,2-a]pyrazin-3-yl)benzamide], the IC50 turned out to be 9.1 nM.
On to `O=C(NC1CC1)c1ccc(-c2cnc3c(NCC4CCC(C(F)(F)F)CC4)nc(-c4ccccc4)cn23)cc1` (mixture of isomers) [Example 2-86, N-cyclopropyl-4-[6-phenyl-8-([[4-(trifluoromethyl)cyclohexyl]methyl]amino)imidazo[1,2-a]pyrazin-3-yl]benzamide], for which the IC50 amounted to 12.4 nM.
For `O=C(NC1CC1)c1ccc(-c2cnc3c(NCc4cccs4)nc(-c4ccccc4)cn23)cc1` [Example 2-77, N-cyclopropyl-4-{6-phenyl-8-[(2-thienylmethyl)amino]imidazo[1,2-a]pyrazin-3-yl}benzamide] the value was 2.5 nM.
As for `O=C(NC1CC1)c1ccc(-c2cnc3c(NCCN4CCCCC4)nc(-c4ccccc4)cn23)cc1` [Example 2-11, N-cyclopropyl-4-(6-phenyl-8-{[2-(piperidin-1-yl)ethyl]amino}imidazo[1,2-a]pyrazin-3-yl)benzamide], the IC50 was determined as 31.6 nM.
